Experimental data published in patent US20150343060A1, “TREATMENT OF CIRCULATING TUMOR CELLS USING AN EXTRACORPOREAL DEVICE” (priority 2014, published 2015).

System: A431 cells
Test: Probe incubation, irradiation at 24 J/cm^2 and NucleoCounter NC-3000 cell vitality assay after about 24 hours
Type: cell-based, human
Conditions: for Cell Number / Cell Vitality: 24 J/cm^2, about 24 hours after irradiation, EGF probe 0.5 μM, panitumumab probe 0.1 μM
Method: A431 cells were plated and incubated with either probe for 5 minutes, 10 minutes or 20 minutes prior to washing and irradiation at 24 J/cm^2. […] After irradiation, the cells were cultured at 37° C., 5% CO2 for approximately 24 hours. The NucleoCounter® NC-3000™ cell vitality assay (Chemometec, Allerød, Denmark) was performed.

## IRDye® 700DX-panitumumab
5 minutes probe incubation
  Cell Number: 675,000 cells/mL
  Cell Vitality: 44.2%
10 minutes probe incubation
  Cell Number: 323,000 cells/mL
  Cell Vitality: 34%
20 minutes probe incubation
  Cell Number: 550,000 cells/mL
  Cell Vitality: 31%
20 minutes vs. 5 minutes incubation, 24 J/cm^2
  effect of longer incubation time on cell death: increased the number of cells undergoing cell death
Average over 5, 10 and 20 minutes incubation, 24 J/cm^2
  cell death averaged over the time periods: about 60%
